Experimental data taken from patent US20040133938A1, “Use of lipoic acid in plant culture media” (priority 2002, published 2004).

Test system: A3244 soybean seed axis explants
Assay: Soybean Agrobacterium transformation, lipoic acid in co-culture media
Type: cell-based
Protocol: Dry A3244 soybean seeds were germinated by soaking in sterile distilled water (SDW) for three minutes, drained and allowed to slowly imbibe for 2 hours at which time Bean Germination Media (BGM) was added. At approximately 12 hours, seed axis explants were isolated by removing seed coats and cotyledons. Inoculation occurred 14 hours after the addition of SDW.
Explants were placed into sterile Plantcons™ with 20 mL of pMON15737/ABI (FIG. 3) and resuspended to an optical density A660 of approximately 0.3 in 1/10 Gamborg's B5 media (Gamborg et al., Exp. Cell Res., 50:151-158, 1968) containing 3% glucose, 1.68 mg/L BAP, 3.9 g/L MES, […] acetosyringone, 1 mM galactronic acid, and 0.25 mg/L GA3. Each Plantcon™ was sonicated for 20 seconds in a L&R Quantrex S140 sonicator that contained SDW+0.1% Triton X100 in the bath. Plantcons™ were held in place at approximately 2.5 cm below the surface of the bath liquid. Following sonication, explants were inoculated for an additional hour while shaking gently on an orbital shaker at ˜90 RPM. After inoculation, the Agrobacterium was removed. […] Co-culture media consisted of 1/10 Gamborg's B5 media containing 5% glucose, 1.68 mg/L BAP, 3.9 g/L, […] acetosyringone, 1 mM galactronic acid and 0.25 mg/L GA3. Explants were incubated at 23° C. in the dark for 3 days.
Lipoic acid was dissolved in either ethanol or potassium hydroxide to make 100 mg/mL stock. […]
Following co-culture, explants were transferred to solid Woody Plant Media (WPM) (McCown & Lloyd, Proc. International Plant Propagation Soc., 30:421, 1981) containing 2% sucrose, 200 mg/L carbenicillin, 100 mg/L Timetin (ticarcillin+clavulanic acid), +/−100 mg/L cefotaxime, 60 mg/L Benomyl, and 75 μM glyphosate. All explants were placed at 28° C., 16-hour light/8-hour dark photoperiod. A second transfer to the same media was made after two weeks.
Shoots were cut 5-8 weeks post-inoculation and rooted on Bean Rooting Media (BRM) containing 25 μM glyphosate and 100 mg/L Timetin.

[1] = 5 uM LA, KOH, 248 explants, Table 12
[2] = 5 uM LA, 244 explants, Table 12
[3] = 10 uM LA, KOH, 240 explants, Table 12
[4] = 10 uM LA, 247 explants, Table 12
[5] = 50 uM LA, KOH, 246 explants, Table 12
[6] = 50 uM LA, 242 explants, Table 12
[7] = 100 uM LA, KOH, 246 explants, Table 12
[8] = 100 uM LA, 396 explants, Table 12
[9] = 250 uM LA, KOH, 505 explants, Table 11
[10] = 250 uM LA, 246 explants, Table 12
[11] = 250 uM LA, 486 explants, Table 11
[12] = 500 uM LA*, 171 explants, Table 12
[13] = 500 uM LA, KOH, 462 explants, Table 11
[14] = 500 uM LA, 531 explants, Table 11
[15] = 750 uM LA, KOH, 454 explants, Table 11
[16] = 750 uM LA, 535 explants, Table 11
[17] = 1000 uM LA, KOH, 471 explants, Table 11
[18] = 1000 uM LA, 530 explants, Table 11
[19] = 1500 uM LA, KOH, 498 explants, Table 11
[20] = 1500 uM LA, 538 explants, Table 11

## O=C(O)CCCCC1CCSS1 (centres unmarked) [lipoic acid, 1,2-dithiolane-3-pentanoic acid]
[1]
  Shooting Frequency: 5%
  Total Rooted Plants: 2
  Total Shoots: 13
  Transformation Efficiency: 0.8%
[2]
  Shooting Frequency: 7%
  Total Rooted Plants: 3
  Total Shoots: 18
  Transformation Efficiency: 1.2%
[3]
  Shooting Frequency: 5%
  Total Rooted Plants: 0
  Total Shoots: 13
  Transformation Efficiency: 0.0%
[4]
  Shooting Frequency: 6%
  Total Rooted Plants: 0
  Total Shoots: 14
  Transformation Efficiency: 0.0%
[5]
  Shooting Frequency: 7%
  Total Rooted Plants: 1
  Total Shoots: 17
  Transformation Efficiency: 0.4%
[6]
  Shooting Frequency: 9%
  Total Rooted Plants: 1
  Total Shoots: 22
  Transformation Efficiency: 0.4%
[7]
  Shooting Frequency: 7%
  Total Rooted Plants: 2
  Total Shoots: 18
  Transformation Efficiency: 0.8%
[8]
  Shooting Frequency: 10%
  Total Rooted Plants: 3
  Total Shoots: 39
  Transformation Efficiency: 0.8%
[9]
  Rooted Plants: 13
  Shooting Frequency: 12%
  Total Shoots: 63
  Transformation Efficiency: 2.6%
[10]
  Shooting Frequency: 13%
  Total Rooted Plants: 9
  Total Shoots: 32
  Transformation Efficiency: 3.7%
[11]
  Rooted Plants: 7
  Shooting Frequency: 14%
  Total Shoots: 69
  Transformation Efficiency: 1.4%
[12]
  Shooting Frequency: 11%
  Total Rooted Plants: 5
  Total Shoots: 19
  Transformation Efficiency: 2.9%
[13]
  Rooted Plants: 7
  Shooting Frequency: 10%
  Total Shoots: 44
  Transformation Efficiency: 1.5%
[14]
  Rooted Plants: 9
  Shooting Frequency: 12%
  Total Shoots: 64
  Transformation Efficiency: 1.7%
[15]
  Rooted Plants: 7
  Shooting Frequency: 12%
  Total Shoots: 56
  Transformation Efficiency: 1.5%
[16]
  Rooted Plants: 9
  Shooting Frequency: 12%
  Total Shoots: 62
  Transformation Efficiency: 1.7%
[17]
  Rooted Plants: 6
  Shooting Frequency: 8%
  Total Shoots: 40
  Transformation Efficiency: 1.3%
[18]
  Rooted Plants: 12
  Shooting Frequency: 10%
  Total Shoots: 52
  Transformation Efficiency: 2.3%
[19]
  Rooted Plants: 10
  Shooting Frequency: 11%
  Total Shoots: 57
  Transformation Efficiency: 2.0%
[20]
  Rooted Plants: 13
  Shooting Frequency: 10%
  Total Shoots: 53
  Transformation Efficiency: 2.4%
Lipoic acid concentration of 250 μM
  increase of transformation frequency: about ninefold
Lipoic acid concentrations of 250 μM to 1500 μM
  effect on transformation efficiency, shoot and rooted plant production: increased transformation efficiency
Low levels of lipoic acid (5 to 100 μM)
  effectiveness in the soybean transformation protocol: not particularly effective
